Among the data in ChEMBL document CHEMBL5143557, “Synthesis and biological evaluation of 3β-O-neoglycosides of caudatin and its analogues as potential anticancer agents” (Bioorg Med Chem, 2022) are Activity and IC50 values, retold here.

Some results are limits rather than exact numbers.

In assay [1] the test system is HepG2. Kind of assay: Induction of apoptosis in human HepG2 cells assessed as early apoptotic cells at 20 uM measured after 48 hrs by annexin-V and PI staining based flow cytometry (reference value: 4.11%). In kind it is functional.
Assay [2] has as its system HepG2. Description: Cell cycle arrest in human HepG2 cells assessed as number of cells at S phase at 20 uM after 48 hrs by flow cytometry (reference value: 24.31%). In kind it is functional.
The test system of assay [3] is HepG2. Kind of assay: Cell cycle arrest in human HepG2 cells assessed as number of cells at G2 phase at 10 uM after 48 hrs by flow cytometry (reference value: 16.28%). In kind it is functional.
For assay [4], the system named is HepG2. Kind of assay: Induction of apoptosis in human HepG2 cells assessed as live cells at 10 uM measured after 48 hrs by annexin-V and PI staining based flow cytometry (reference value: 91%). In kind it is functional.
The subject of assay [5] is HepG2. Kind of assay: Cell cycle arrest in human HepG2 cells assessed as number of cells at G1 phase at 5 uM after 48 hrs by flow cytometry (reference value: 57.68%). In kind it is functional.
Assay [6] relates to HepG2. Kind of assay: Induction of apoptosis in human HepG2 cells assessed as late apoptotic cells at 20 uM measured after 48 hrs by annexin-V and PI staining based flow cytometry (reference value: 4.52%). In kind it is functional.
Assay [7] deals with HepG2. Kind of assay: Antiproliferative activity against human HepG2 cells after 48 hrs by MTT assay. In kind it is functional, cell-based. The note with it: HepG2, 48 h.
In assay [8] the test system is HepG2. Description: Cell cycle arrest in human HepG2 cells assessed as number of cells at G1 phase at 20 uM after 48 hrs by flow cytometry (reference value: 57.68%). In kind it is functional.
Assay [9] has as its system HepG2. Kind of assay: Induction of apoptosis in human HepG2 cells assessed as late apoptotic cells at 10 uM measured after 48 hrs by annexin-V and PI staining based flow cytometry (reference value: 4.52%). In kind it is functional.
In assay [10] the test system is HepG2. Kind of assay: Induction of apoptosis in human HepG2 cells assessed as necrotic cells at 20 uM measured after 48 hrs by annexin-V and PI staining based flow cytometry (reference value: 0.363%). In kind it is functional.
Assay [11] has as its system HepG2. Kind of assay: Cell cycle arrest in human HepG2 cells assessed as number of cells at G2 phase at 5 uM after 48 hrs by flow cytometry (reference value: 16.28%). In kind it is functional.
In assay [12] the test system is HepG2. Description: Induction of apoptosis in human HepG2 cells assessed as necrotic cells at 10 uM measured after 48 hrs by annexin-V and PI staining based flow cytometry (reference value: 0.363%). In kind it is functional.
The test system of assay [13] is HepG2. Kind of assay: Induction of apoptosis in human HepG2 cells assessed as late apoptotic cells at 5 uM measured after 48 hrs by annexin-V and PI staining based flow cytometry (reference value: 4.52%). In kind it is functional.
In assay [14] the test system is HepG2. Kind of assay: Induction of apoptosis in human HepG2 cells assessed as necrotic cells at 5 uM measured after 48 hrs by annexin-V and PI staining based flow cytometry (reference value: 0.363%). In kind it is functional.
A further assay relates to MCF7. Description: Antiproliferative activity against human MCF7 cells after 48 hrs by MTT assay. In kind it is functional, cell-based. The note with it: MCF7, 48 h.
For assay [15], the system named is HepG2. Kind of assay: Induction of apoptosis in human HepG2 cells assessed as live cells at 20 uM measured after 48 hrs by annexin-V and PI staining based flow cytometry (reference value: 91%). In kind it is functional.
Assay [16] concerns HepG2. Kind of assay: Cell cycle arrest in human HepG2 cells assessed as number of cells at S phase at 5 uM after 48 hrs by flow cytometry (reference value: 24.31%). In kind it is functional.
For assay [17], the system named is HepG2. Description: Induction of apoptosis in human HepG2 cells assessed as live cells at 5 uM measured after 48 hrs by annexin-V and PI staining based flow cytometry (reference value: 91%). In kind it is functional.
The subject of assay [18] is HepG2. Description: Cell cycle arrest in human HepG2 cells assessed as number of cells at S phase at 10 uM after 48 hrs by flow cytometry (reference value: 24.31%). In kind it is functional.
Another assay relates to HCT-116. Description: Antiproliferative activity against human HCT-116 cells after 48 hrs by MTT assay. In kind it is functional, cell-based. The note with it: HCT-116, 48 h.
A further assay deals with HeLa. Description: Antiproliferative activity against human HeLa cells after 48 hrs by MTT assay. In kind it is functional, cell-based.
The subject of assay [19] is HepG2. Description: Cell cycle arrest in human HepG2 cells assessed as number of cells at G2 phase at 20 uM after 48 hrs by flow cytometry (reference value: 16.28%). In kind it is functional.
Assay [20] has as its system HepG2. Description: Cell cycle arrest in human HepG2 cells assessed as number of cells at G1 phase at 10 uM after 48 hrs by flow cytometry (reference value: 57.68%). In kind it is functional.
The subject of assay [21] is HepG2. Kind of assay: Induction of apoptosis in human HepG2 cells assessed as early apoptotic cells at 10 uM measured after 48 hrs by annexin-V and PI staining based flow cytometry (reference value: 4.11%). In kind it is functional.
Assay [22] has as its system HepG2. Description: Induction of apoptosis in human HepG2 cells assessed as early apoptotic cells at 5 uM measured after 48 hrs by annexin-V and PI staining based flow cytometry (reference value: 4.11%). In kind it is functional.

As to `CC(=O)OC[C@@H]1O[C@H](O[C@H]2CC[C@@]3(C)C(=CC[C@]4(O)[C@@H]3C[C@@H](OC(=O)/C=C(\C)C(C)C)[C@@]3(C)[C@]4(O)CC[C@@]3(O)C(C)=O)C2)[C@@H](OC(C)=O)[C@H](OC(C)=O)[C@H]1OC(C)=O`, the Activity in the assay with HepG2 [1] is 76.5%; with HepG2 [2] it was 38.82%; with HepG2 [3] it was 15.75%; in the assay with HepG2 [4], 57%; in the assay with HepG2 [5], 51.38%; in the assay on HepG2 [6], 5.34%. For the same compound, the Activity with HepG2 [8] is on record as 41.76%; with HepG2 [9], 7.26%; in the assay with HepG2 [10] it was 0.184%; in the assay with HepG2 [11], 16.95%; in the assay with HepG2 [12] it was 0.096%; in the assay on HepG2 [13], 5.07%. Further, the Activity was 0.068% in the assay with HepG2 [14]; 18% in the assay on HepG2 [15]; 28.72% in the assay on HepG2 [16]; 83.5% with HepG2 [17]; 34.6% in the assay with HepG2 [18]; 15.99% in the assay with HepG2 [19]. In addition, the Activity is 46.89% with HepG2 [20], 35.6% in the assay on HepG2 [21] and 11.3% in the assay with HepG2 [22]. For the same compound, the half-inhibitory concentration (IC50) stood at 3.11 µM in the assay with HepG2 [7], 9.04 µM in the assay on MCF7, 5.64 µM in the assay on HCT-116 and 7.6 µM in the assay with HeLa.

Regarding `CC(=O)[C@]1(O)CC[C@@]2(O)[C@]1(C)[C@H](OC(=O)c1ccc(O)cc1)C[C@@H]1[C@@]3(C)CC[C@H](O)CC3=CC[C@]12O`, the half-maximal inhibitory concentration (IC50) with HepG2 [7] is 79.1 µM; in the assay on MCF7, 83.1 µM; with HCT-116, 73 µM; with HeLa, greater than 100 µM.

For the compound `CC(=O)OC[C@H]1O[C@@H](O[C@H]2CC[C@@]3(C)C(=CC[C@]4(O)[C@@H]3C[C@@H](OC(=O)/C=C/c3ccccc3)[C@@]3(C)[C@]4(O)CC[C@@]3(O)[C@H](C)OC(=O)c3cccnc3)C2)[C@H](OC(C)=O)[C@@H](OC(C)=O)[C@@H]1OC(C)=O`, the IC50 with HepG2 [7] worked out at 26.4 µM; in the assay with MCF7, 82.8 µM; in the assay with HCT-116, 36.1 µM; in the assay on HeLa, 79.6 µM.

Take `CC(=O)O[C@@H]1[C@@H](OC(C)=O)[C@H](O[C@H]2CC[C@@]3(C)C(=CC[C@]4(O)[C@@H]3C[C@@H](OC(=O)/C=C(\C)C(C)C)[C@@]3(C)[C@]4(O)CC[C@@]3(O)C(C)=O)C2)OC[C@H]1OC(C)=O`: the IC50 with HepG2 [7] turned out to be 42.6 µM; with MCF7, 50.4 µM; with HCT-116, 34.9 µM; with HeLa, 85.3 µM.

On to `CC(=O)[C@]1(O)CC[C@@]2(O)[C@]1(C)[C@H](OC(=O)/C=C(\C)C(C)C)C[C@@H]1[C@@]3(C)CC[C@H](O[C@@H]4OC[C@@H](O)[C@H](O)[C@H]4O)CC3=CC[C@]12O`, for which the IC50 in the assay on HepG2 [7] is 90.9 µM; with MCF7, 95.9 µM; in the assay on HCT-116 it was 90.9 µM; in the assay with HeLa, greater than 100 µM.

As for `CC(=O)N[C@H]1[C@H](O[C@H]2CC[C@@]3(C)C(=CC[C@]4(O)[C@@H]3C[C@@H](OC(=O)/C=C(\C)C(C)C)[C@@]3(C)[C@]4(O)CC[C@@]3(O)C(C)=O)C2)O[C@H](COC(C)=O)[C@@H](OC(C)=O)[C@@H]1OC(C)=O`, the IC50 stood at 5.5 µM with HepG2 [7], 21.1 µM in the assay on MCF7, 17.3 µM in the assay on HCT-116 and 23.8 µM in the assay on HeLa.

For the compound `CC(=O)[C@]1(O)CC[C@@]2(O)[C@]1(C)[C@H](OC(=O)/C=C(\C)C(C)C)C[C@@H]1[C@@]3(C)CC[C@H](O[C@@H]4OC[C@H](O)[C@H](O)[C@H]4O)CC3=CC[C@]12O`, the concentration for half-maximal inhibition (IC50) with HepG2 [7] was 87.5 µM; with MCF7, greater than 100 µM; in the assay with HCT-116 it was greater than 100 µM; with HeLa, greater than 100 µM.

Regarding `CC(=O)[C@]1(O)CC[C@@]2(O)[C@]1(C)[C@H](OC(=O)c1ccc(O)cc1)C[C@@H]1[C@@]3(C)CC[C@H](O[C@@H]4O[C@H](CO)[C@@H](O)[C@H](O)[C@H]4O)CC3=CC[C@]12O`, the IC50 in the assay on HepG2 [7] came out at 65.3 µM; in the assay with MCF7 it was 92.6 µM; in the assay with HCT-116, 75.1 µM; with HeLa, 95.5 µM.
